Assay results published in patent publication US9765075B2, “Substituted bridged urea analogs as sirtuin modulators” (GLAXOSMITHKLINE LLC, priority 2013, dated 2017).
Read-outs that look alike come from different tables or passages of the source.

Molecular target: T1, SIRT1 (Homo sapiens, UniProt Q96EB6)
T1 sequence (Q96EB6 1-747): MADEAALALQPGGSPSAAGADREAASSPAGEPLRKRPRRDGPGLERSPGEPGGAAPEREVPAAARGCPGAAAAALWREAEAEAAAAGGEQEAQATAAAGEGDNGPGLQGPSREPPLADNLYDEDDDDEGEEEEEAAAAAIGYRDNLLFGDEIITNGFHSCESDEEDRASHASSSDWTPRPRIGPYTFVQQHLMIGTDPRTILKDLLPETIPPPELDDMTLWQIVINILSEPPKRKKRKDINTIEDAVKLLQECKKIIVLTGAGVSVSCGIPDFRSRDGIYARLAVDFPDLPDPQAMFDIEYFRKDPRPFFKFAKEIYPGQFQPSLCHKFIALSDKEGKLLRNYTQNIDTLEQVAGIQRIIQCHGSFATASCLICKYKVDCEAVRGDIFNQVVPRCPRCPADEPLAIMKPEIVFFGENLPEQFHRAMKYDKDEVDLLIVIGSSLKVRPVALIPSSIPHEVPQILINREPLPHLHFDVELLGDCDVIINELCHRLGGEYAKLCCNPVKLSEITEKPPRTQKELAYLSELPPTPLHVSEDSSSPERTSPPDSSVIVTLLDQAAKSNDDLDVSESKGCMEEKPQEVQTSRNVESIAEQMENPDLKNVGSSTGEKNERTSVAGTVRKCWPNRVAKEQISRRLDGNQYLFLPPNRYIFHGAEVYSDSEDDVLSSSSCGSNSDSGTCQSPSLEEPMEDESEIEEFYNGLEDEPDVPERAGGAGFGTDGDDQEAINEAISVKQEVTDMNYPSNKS
Test: Trp mass spectrometry assay (SIRT1 activation)
Assay type: biochemical
Settings: for Emax: percent maximum fold activation of SIRT1, read-out: Tryp % Fold Act
Text: Mass spectrometry based assays were used to identify modulators of SIRT1 activity. […] The peptide was labeled with the fluorophore 5TMR (excitation 540 nm/emission 580 nm) at the C-terminus. The sequence of the peptide substrate was based on p53 with several modifications. In addition, the methionine residue naturally present in the sequence was replaced with the norleucine because the methionine may be susceptible to oxidation during synthesis and purification. The Trp based assay utilized a peptide having an amino acid residues as follows: Ac-R-H-K-K(Ac)-W-NH2 (SEQ ID NO: 2).
The Trp mass spectrometry assay was conducted as follows. 0.5 μM peptide substrate and 120 μM βNAD^+ were incubated with 10 nM SIRT1 for 25 minutes at 25° C. in a reaction buffer (50 mM HEPES pH 7.5, […] NaCl, 1 mM DTT, 0.05% BSA). The SIRT1 protein was obtained by cloning the SirT1 gene into a T7-promoter containing vector, which was then expressed in BL21(DE3) bacterial cells and purified as described in further detail below. Test compound was added at varying concentrations to this reaction mixture and the resulting reactions were monitored. After the 25 minute incubation with SIRT1, 10 μL of 10% formic acid was added to stop the reaction. The resulting reactions were sealed and frozen for later mass spec analysis. The relative SIRT1 activity was then determined by measuring the amount of 0-acetyl-ADP-ribose (OAADPR) formed (or, alternatively, the amount of deacetylated Trp peptide generated) by the NAD-dependent sirtuin deacetylation reaction in the presence of varying concentrations of the test compound versus control reactions lacking the test compound. The degree to which the test agent activated deacetylation by SIRT1 was expressed as EC1.5 (i.e., the concentration of compound required to increase SIRT1 activity by 50% over the control lacking test compound), and Percent Maximum Activation (i.e., the maximum activity relative to control (100%) obtained for the test compound).
A control for activation of sirtuin activity was conducted using 10 nM of sirtuin protein, with 1 μL of DMSO in place of compound, to determine the amount of deacetylation of the substrate at a given time point within the linear range of the assay. This time point was the same as that used for test compounds and, within the linear range, the endpoint represents a change in velocity.
For the above assay, SIRT1 protein was expressed and purified as follows. The SirT1 gene was cloned into a T7-promoter containing vector and transformed into BL21(DE3). The protein was expressed by induction with 1 mM IPTG as an N-terminal His-tag fusion protein at 18° C. overnight and harvested at 30,000×g. Cells were lysed with lysozyme in lysis buffer (50 mM Tris-HCl, 2 mM Tris[2-carboxyethyl] phosphine (TCEP), 10 μM ZnCl2, 200 mM NaCl) and further treated with sonication for 10 min for complete lysis. The protein was purified over a Ni-NTA column (Amersham) and fractions containing pure protein were pooled, concentrated and run over a sizing column (Sephadex S200 26/60 global). The peak containing soluble protein was collected and run on an Ion-exchange column (MonoQ). Gradient elution (200 mM-500 mM NaCl) yielded pure protein. This protein was concentrated and dialyzed against dialysis buffer (20 mM Iris-HCl, 2 mM TCEP) overnight. The protein was aliquoted and frozen at −80° C. until further use.

[1] = Trp mass spectrometry assay, EC1.5 = concentration of test compound that results in 150% activation of SIRT1
[2] = concentration of test compound that results in 150% activation of SIRT1, Trp peptide substrate

O=C(Nc1cccc(-c2cnco2)c1)N1c2nc(-c3cccc(C(F)(F)F)c3)ccc2N2CC[C@H]1C2 [68 (1)]
Tryp AVG EC1.5 (μM) [1]: A (EC1.5<1 μM) | Emax (Trp mass spectrometry assay): ≥ 150%

Cc1cnc2c(NC(=O)N3c4nc(-c5cccc(C(F)(F)F)c5)ccc4N4CC[C@H]3C4)cccc2n1 [76 (8)]
Tryp AVG EC1.5 (μM) [1]: A (EC1.5<1 μM) | Emax (Trp mass spectrometry assay): ≥ 150%

CCn1ncc2c(NC(=O)N3c4nc(-c5cccc(C(F)(F)F)c5)ccc4N4CC[C@H]3C4)cccc21 [81 (9)]
Tryp AVG EC1.5 (μM) [1]: A (EC1.5<1 μM) | Emax (Trp mass spectrometry assay): ≥ 150%

O=C(Nc1cccnc1)N1c2nc(-c3cccc(C(F)(F)F)c3)ccc2N2CCC[C@H]1C2 [314 (5)]
Tryp AVG EC1.5 (μM) [2]: A (EC1.5<1 μM) | Emax (Trp peptide substrate): ≥ 150%

NCc1ccc(NC(=O)N2c3nc(-c4cccc(C(F)(F)F)c4)ccc3N3CCC[C@H]2C3)cc1 [444 (4)]
Tryp AVG EC1.5 (μM) [2]: A (EC1.5<1 μM) | Emax (Trp peptide substrate): ≥ 150%

O=C(CCCCCNC(=O)c1ccc(-c2c3ccc(=O)cc-3oc3cc(O)ccc23)c(C(=O)O)c1)NCc1ccc(NC(=O)N2c3nc(-c4cccc(C(F)(F)F)c4)ccc3N3CCC[C@H]2C3)cc1 [546 (3)]
Tryp AVG EC1.5 (μM) [2]: B (EC1.5 1-25 μM) | Emax (Trp peptide substrate): < 150%

O=C(Nc1ccccn1)N1c2nc(-c3cccc(C(F)(F)F)c3)ccc2N2CC[C@H]1C2 [816 (7)]
Tryp AVG EC1.5 (μM) (Trp mass spectrometry assay, EC1.5 = concentration giving 150% activation of SIRT1): A (EC1.5<1 μM) | Emax (Trp mass spectrometry assay): ≥ 150%

COc1cc(NC(=O)N2c3nc(-c4cncc(C)c4)ccc3N3CCC[C@H]2C3)ncn1 [EX-527, reference compound]
Tryp AVG EC1.5 (μM) [2]: A (EC1.5<1 μM) | Emax (Trp peptide substrate): ≥ 150%

O=C(Nc1cnccn1)N1c2nc(-c3cccc(C(F)(F)F)c3)ccc2N2CC[C@H]1C2 [Example 10]
Emax (Trp mass spectrometry assay): ≥ 150%

O=C(Nc1cccnn1)N1c2nc(-c3cccc(C(F)(F)F)c3)ccc2N2CC[C@H]1C2 [Example 11]
Emax (Trp mass spectrometry assay): ≥ 150%

O=C(Nc1ccncn1)N1c2nc(-c3cccc(C(F)(F)F)c3)ccc2N2CC[C@H]1C2 [Example 12]
Emax (Trp mass spectrometry assay): ≥ 150%

Cc1cc(C)nc(NC(=O)N2c3nc(-c4cccc(C(F)(F)F)c4)ccc3N3CC[C@H]2C3)c1 [Example 13]
Emax (Trp mass spectrometry assay): ≥ 150%

Cc1cccnc1NC(=O)N1c2nc(-c3cccc(C(F)(F)F)c3)ccc2N2CC[C@H]1C2 [Example 14]
Emax (Trp mass spectrometry assay): < 150%

O=C(Nc1ccncc1F)N1c2nc(-c3cccc(C(F)(F)F)c3)ccc2N2CC[C@H]1C2 [Example 15]
Emax (Trp mass spectrometry assay): ≥ 150%

O=C(Nc1ccnc(O[C@H]2CCOC2)n1)N1c2nc(-c3cccc(C(F)(F)F)c3)ccc2N2CC[C@H]1C2 [Example 16]
Emax (Trp mass spectrometry assay): ≥ 150%

O=C(Nc1cccnc1)N1c2nc(-c3cccc(C(F)(F)F)c3)ccc2N2CC[C@H]1C2 [Example 17]
Emax (Trp mass spectrometry assay): ≥ 150%

O=C(Nc1cnc(OC[C@H](O)CO)cn1)N1c2nc(-c3cccc(C(F)(F)F)c3)ccc2N2CC[C@H]1C2 [Example 18]
Emax (Trp mass spectrometry assay): ≥ 150%

O=C(Nc1ccccn1)N1c2nc(-c3cccc(Cl)c3)ccc2N2CC[C@H]1C2 [Example 19]
Emax (Trp mass spectrometry assay): ≥ 150%

O=C(Nc1cncc(F)c1)N1c2nc(-c3cccc(C(F)(F)F)c3)ccc2N2CC[C@H]1C2 [Example 20]
Emax (Trp mass spectrometry assay): ≥ 150%

Cc1cnccc1NC(=O)N1c2nc(-c3cccc(C(F)(F)F)c3)ccc2N2CC[C@H]1C2 [Example 21]
Emax (Trp mass spectrometry assay): ≥ 150%

COc1cc(NC(=O)N2c3nc(-c4cccc(C(F)(F)F)c4)ccc3N3CC[C@H]2C3)nc(OC)n1 [Example 22]
Emax (Trp mass spectrometry assay): ≥ 150%

O=C(Nc1cncnc1)N1c2nc(-c3cccc(C(F)(F)F)c3)ccc2N2CC[C@H]1C2 [Example 23]
Emax (Trp mass spectrometry assay): ≥ 150%

O=C(Nc1ccncc1F)N1c2nc(-c3cccc(Cl)c3)ccc2N2CC[C@H]1C2 [Example 24]
Emax (Trp mass spectrometry assay): ≥ 150%

Cn1ccc(NC(=O)N2c3nc(-c4cccc(C(F)(F)F)c4)ccc3N3CC[C@H]2C3)n1 [Example 25]
Emax (Trp mass spectrometry assay): ≥ 150%

Cc1cc(OCC(O)CO)nc(NC(=O)N2c3nc(-c4cccc(C(F)(F)F)c4)ccc3N3CC[C@H]2C3)n1 (stereo partly shown) [Example 26]
Tryp AVG EC1.5 (μM) [1]: B (EC1.5 1-25 μM) | Emax (Trp mass spectrometry assay): ≥ 150%

O=C(Nc1cnccn1)N1c2nc(-c3cccc(C(F)(F)F)c3)ccc2N2CCC[C@H]1C2 [Example 27]
Emax (Trp mass spectrometry assay): ≥ 150%

O=C(Nc1cccnn1)N1c2nc(-c3cccc(C(F)(F)F)c3)ccc2N2CCC[C@H]1C2 [Example 28]
Emax (Trp mass spectrometry assay): ≥ 150%

O=C(Nc1ccncn1)N1c2nc(-c3cccc(C(F)(F)F)c3)ccc2N2CCC[C@H]1C2 [Example 29]
Emax (Trp mass spectrometry assay): ≥ 150%

Cc1cc(C)nc(NC(=O)N2c3nc(-c4cccc(C(F)(F)F)c4)ccc3N3CCC[C@H]2C3)c1 [Example 30]
Emax (Trp mass spectrometry assay): ≥ 150%

COc1cc(NC(=O)N2c3nc(-c4cccc(C(F)(F)F)c4)ccc3N3CCC[C@H]2C3)nc(OC)n1 [Example 31]
Emax (Trp mass spectrometry assay): ≥ 150%

COc1nccc(NC(=O)N2c3nc(-c4cccc(C(F)(F)F)c4)ccc3N3CCC[C@H]2C3)n1 [Example 32]
Emax (Trp mass spectrometry assay): ≥ 150%

Cc1nc(NC(=O)N2c3nc(-c4cccc(C(F)(F)F)c4)ccc3N3CCC[C@H]2C3)sc1C [Example 33]
Emax (Trp mass spectrometry assay): ≥ 150%

COc1cc(NC(=O)N2c3nc(-c4cccc(C(F)(F)F)c4)ccc3N3CC[C@H]2C3)ncn1 [Example 34]
Emax (Trp mass spectrometry assay): ≥ 150%

Cc1cccnc1NC(=O)N1c2nc(-c3cccc(C(F)(F)F)c3)ccc2N2CCC[C@H]1C2 [Example 35]
Emax (Trp mass spectrometry assay): ≥ 150%

Cn1ccc(NC(=O)N2c3nc(-c4cccc(C(F)(F)F)c4)ccc3N3CCC[C@H]2C3)n1 [Example 36]
Emax (Trp mass spectrometry assay): ≥ 150%

Cc1cnccc1NC(=O)N1c2nc(-c3cccc(C(F)(F)F)c3)ccc2N2CCC[C@H]1C2 [Example 37]
Emax (Trp mass spectrometry assay): ≥ 150%

O=C(Nc1cncnc1)N1c2nc(-c3cccc(C(F)(F)F)c3)ccc2N2CCC[C@H]1C2 [Example 38]
Emax (Trp mass spectrometry assay): ≥ 150%

O=C(Nc1ccc(F)cn1)N1c2nc(-c3cccc(C(F)(F)F)c3)ccc2N2CCC[C@H]1C2 [Example 39]
Emax (Trp mass spectrometry assay): ≥ 150%

Cn1cc(NC(=O)N2c3nc(-c4cccc(C(F)(F)F)c4)ccc3N3CCC[C@H]2C3)cn1 [Example 40]
Emax (Trp mass spectrometry assay): ≥ 150%

COc1cc(NC(=O)N2c3nc(-c4cccc(C(F)(F)F)c4)ccc3N3CCC[C@H]2C3)ncn1 [Example 41]
Emax (Trp mass spectrometry assay): ≥ 150%

O=C(Nc1ccncc1F)N1c2nc(-c3cccc(C(F)(F)F)c3)ccc2N2CCC[C@H]1C2 [Example 42]
Emax (Trp mass spectrometry assay): ≥ 150%

O=C(Nc1ccc(F)cn1)N1c2nc(-c3cccc(Cl)c3)ccc2N2CC[C@H]1C2 [Example 43]
Emax (Trp mass spectrometry assay): ≥ 150%

Cc1cnccc1NC(=O)N1c2nc(-c3cccc(Cl)c3)ccc2N2CC[C@H]1C2 [Example 44]
Emax (Trp mass spectrometry assay): ≥ 150%

O=C(Nc1cncc(F)c1)N1c2nc(-c3cccc(C(F)(F)F)c3)ccc2N2CCC[C@H]1C2 [Example 45]
Emax (Trp mass spectrometry assay): ≥ 150%

O=C(Nc1ccc(F)cn1)N1c2nc(-c3cccc(C(F)(F)F)c3)ccc2N2CC[C@H]1C2 [Example 46]
Emax (Trp mass spectrometry assay): ≥ 150%

COc1nccc(NC(=O)N2c3nc(-c4cccc(C(F)(F)F)c4)ccc3N3CC[C@H]2C3)n1 [Example 47]
Emax (Trp mass spectrometry assay): ≥ 150%
